According to US20250051526A1, “POLYMERS COMPRISING GLYCOLIPIDS AND METHODS FOR PRODUCING AND USING THE SAME” (priority 2021, published 2025):

Test: binding preference from monorhamnolipid-metal conditional stability constants for 26 metals
Conditions: metals of environmental concern (e.g., Cd, Pd, Hg) versus common soil and water cations
From the text: They are considered “green” molecules due to their natural products from bacteria (e.g., Pseudomonas aeruginosa), biodegradability, and low toxicity. The present inventors have experimentally determined the monorhamnolipid-metal conditional stability constants ([…]) for 26 metals of interest.

- binding preference for metals of environmental concern over common soil and water cations: 6-8 orders of magnitude
Substance: monorhamnolipid
